Measured values from US20220273590A1, “COMPOUNDS FOR PREVENTION AND TREATMENT OF POST-OPERATIVE COGNITIVE DYSFUNCTION” (ABREXA PHARMACEUTICALS, INC., priority 2019, published 2022).

How the values were obtained:
[1] = Body weight and food intake in the POCD study; type: in vivo, Wistar rats
Text: A total of 60 male Wistar rats (Wu-Wistar, Envigo, The Netherlands) were studied in 5 cohorts. For that, rats were ordered in 5 groups of different weight classes (220-280 g) to ensure that each group would be around 350 g at the time of surgery. Rats arrived at the facility at least 2 weeks before start of the experiments, and were put on reversed light:dark cycle 12:12 with the lights out at 09:00 am. Rats were housed in groups of 2-3 in standard cages under controlled conditions (temperature of 20+/−2 degrees and humidity of 50% +/−10%). The rats were fed with water and Teklad (Envigo, 2018) chow food ad libitum. After surgery, rats were housed individually. Approval of all experiments was given by the applicable animal and welfare committee of the Netherlands.
One week before surgery, chronic treatment J147 treatment started and continued until the end of the experiment. The day of surgery, rats for acute treatment received their J147 (4-5 hours before surgery) by gavage, while the designated control rats received vehicle gavage. Rats were subjected to abdominal surgery, and allowed to recover. After that rats were housed individually. Non-surgery control were placed in individual cages at the same time. Blood samples were collected from the jugular vein catheter at the time of surgery (plasma levels of J147) and at 1, 6 and 24 hours after surgery (plasma inflammatory markers). The first week post-surgery, rats were weighed daily and food intake was measured. Day 7-12 post-surgery rats were subjected to behavioral testing regarding general exploratory behavior and cognitive performance. On Day 14 rats were sacrificed, blood samples were collected from cardiac puncture, CSF was collected, and brain tissue was collected and processed for immunohistochemistry or molecular analyses.
For chronic oral treatment, J147 was added to the food (Teklad 2018, Envigo) at a concentration of 500 mg/kg. J147 was provided by Abrexa and Envigo prepared the food. […] After surgery food intake was measured daily during the last hour of the light phase. […]

[2] = tested on: animal model of POCD; assay: Overall outcome in the animal model of POCD (abdominal surgery); type: in vivo, Wistar rats
Experimental: In this study, the effects of J147 in an animal model of POCD were investigated. Male Wistar rats (˜350 g) were randomly divided into 4 experimental groups; non-surgery; control abdominal surgery; surgery+acute J147 treatment (7 mg/rat by gavage, 4-5 hours before surgery); surgery+chronic J147 (500 mg/kg food, 1 week before surgery until the end of the study). Timed blood samples were collected. Days 9-11 post surgery, general behavior (Open field: OF) and cognitive performance (Novel Object/Novel Location Recognition: NOR/NLR; Morris Water Maze: MWM) were tested. Day 14, rats were sacrificed and blood and brain tissue were collected for further analyses. (Neuro)inflammation was examined by circulating cytokine levels and microglia activation in the brain. Within each cohort rats (n=12 per cohort) were equally divided over four experimental groups, including non-surgery, control surgery, surgery+acute J147 and surgery+chronic J147. Half of the non-surgery and control surgery groups received vehicle gavage and served as control for acute treatment. One week before surgery, chronic treatment J147 treatment started and continued until the end of the experiment. […] The first week post-surgery, rats were weighed daily and food intake was measured. […]

Question: With `COc1cccc(/C=N/N(C(=O)C(F)(F)F)c2ccc(C)cc2C)c1` [J147] as the molecule, how does the “body weight gained during first week on the J147 diet” value ([1]; chronic J147 500 mg/kg food, week before surgery, control fed rats 33.5±3.0 g) read?
Answer: 32.0 ± 1.8 g

Question: What about the “average food eaten during the first 10 days after surgery” value ([1]; chronic J147 diet, individual housing, surgery control food 20±1 g) of the same molecule?
Answer: 20 ± 1 g

Question: And the “body weight loss after surgery” value ([1]; chronically treated rats (J147 500 mg/kg food))?
Answer: lost significantly less body weight after surgery

Question: What about the “impaired cognitive aspects after surgery” value ([2]; chronic J147 administration) of the same molecule?
Answer: capable of preventing all impaired cognitive aspects after surgery

Question: And the “conditions after surgery (body weight loss, behavior in the OF)” value ([2]; chronic treatment)?
Answer: generally improved conditions after surgery
